Measurements taken from PubChem BioAssay (NCI).
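Briefly, cells in 96-well plates were exposed to five compound concentrations for 48 h, and endpoints were estimated by linear interpolation. At the GI50, growth is halved. Definition used: TGI = concentration required for complete inhibition of growth.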

How the values were obtained:
Experiment in all cases: DTP human tumour cell line panel, 48 h
TK-10 renal = test system: TK-10 renal
CAKI-1 renal = test system: CAKI-1 renal
CCRF-CEM leukemia = test system: CCRF-CEM leukemia
U251 CNS = test system: U251 CNS
PC-3 prostate = test system: PC-3 prostate
OVCAR-8 ovarian = test system: OVCAR-8 ovarian
SK-MEL-28 melanoma = test system: SK-MEL-28 melanoma
SK-OV-3 ovarian = test system: SK-OV-3 ovarian
KM12 colon = test system: KM12 colon
RXF 393 renal = test system: RXF 393 renal

Compound	GI50 (TK-10 renal) [µM]	TGI (TK-10 renal) [µM]	GI50 (CAKI-1 renal) [µM]	TGI (CAKI-1 renal) [µM]	GI50 (CCRF-CEM leukemia) [µM]	TGI (CCRF-CEM leukemia) [µM]	GI50 (U251 CNS) [µM]	TGI (U251 CNS) [µM]	GI50 (PC-3 prostate) [µM]	TGI (PC-3 prostate) [µM]	GI50 (OVCAR-8 ovarian) [µM]	TGI (OVCAR-8 ovarian) [µM]	GI50 (SK-MEL-28 melanoma) [µM]	TGI (SK-MEL-28 melanoma) [µM]	GI50 (SK-OV-3 ovarian) [µM]	TGI (SK-OV-3 ovarian) [µM]	GI50 (KM12 colon) [µM]	TGI (KM12 colon) [µM]	TGI (RXF 393 renal) [µM]	GI50 (RXF 393 renal) [µM]
CCOC(=O)c1cc2c(n1Cc1ccccc1OC)-c1oncc1CCC2	67.8	> 100	3.51	> 100	2.87	> 100	3.78	> 100	2.48	> 100	3.85	> 100	> 100	> 100	2.7	19.7	2.1	> 100		
CNC(=O)NCCN1N=C(C)/C(=C\c2ccccc2)CC1=O		> 100		> 100		> 100		> 100				> 100		> 100		> 100		> 100	> 100	
CC(=N/NC(N)=S)/C(C)=N/NC(N)=S		> 100				> 100				> 100		> 100		> 100				> 100	> 100	
CCc1cccc(NC(=O)c2cc(/C=C/c3ccccc3)[nH]c(=S)n2)c1		> 100				> 100		> 100				> 100		> 100		> 100		> 100	> 100	
O=c1[nH]c2ccccc2n1C1CCN(CCOc2ccccc2)CC1	86.2	> 100	14.9	52.7			20.5	> 100	10.7	> 100	13.3	> 100	47.9	> 100	42.9	> 100	40.4	> 100	> 100	45
CC(=N\O)/C(C)=N/O.CC(=N\O)/C(C)=N/O.[Fe].[NH2-].c1c[nH]cn1	> 100	> 100	> 100	> 100			> 100	> 100	> 100	> 100	> 100	> 100	> 100	> 100	> 100	> 100	> 100	> 100	> 100	> 100
CCCCC[C@H]1C/C=C2/C(=O)C(Cl)=C[C@@H]2C/C=C\CCCC(=O)O1	0.612	1.17			0.113	2.93	0.33	0.737	0.473	1.27	0.328	1.65	0.472	1.12	0.907	2.68	0.518	1.33	0.868	0.457
CC[Si](CC)(CC)OC1[C@@H](O[Si](CC)(CC)CC)[C@@H](CNC(=O)NC)O[C@H]1n1cnc2c(NC(=O)Nc3ccccc3)ncnc21 (stereo partly drawn)	2.65	9.88	2.76	12.2	3.02	9.18	4.06	> 100			3.89	> 100	4.93	> 100	14.7	> 100	3.26	9.5	4.67	2.36
CCOC(=O)CCSC1=CC(=O)c2nc3ccccc3c3ccnc1c23	16.7	32.4	16.3	31.9	3.44	> 100	29.8	> 100	13.5	38.7			20.2	41.1	29.3	93.4	15	34.1		
CCc1ccccc1NC(=O)C(=O)C(C#N)c1c(Cl)cccc1Cl (stereo not drawn)		> 100		> 100		> 100		> 100						> 100		> 100		> 100		
Oc1cc(O)c2c(c1)OC(c1ccc(O)c(O)c1)C(O)C2c1c(O)cc(O)c2c1OC(c1ccc(O)c(O)c1)C(O)C2 (stereo not drawn)		> 100		67.5				> 100		> 100		> 100		> 100		> 100		> 100	> 100	
Cc1cn2c(/C=C3\C(=O)N(C)c4ccc(Cl)cc43)c(C)nc2s1	9.65	73	3.11	> 100	2.74	10.1	3.27	12.3	0.99	4.38	5.5	> 100	6.6	> 100			1.29	> 100		
CCN(CC)CCCNc1cc(OC)c(OC)c2cccnc12	23	50.1	2.15	29.7			3.71	21	16.1	47.2	13.3	35.5	15.7	32.9	9.37	44.9	13	31	34.3	19.1
CC(C)(C)OC1=C(OC(C)(C)C)C(O)(c2ccc(Cl)cc2)C1=O (stereo not drawn)		> 100				> 100		> 100				> 100		> 100		> 100		> 100	> 100	
CCOC(=O)CCn1cnc(N)n1		> 100		> 100		> 100		> 100				> 100		> 100		> 100		> 100	> 100	
CC(=O)/C=C/c1ccc(N(CCO)Cc2ccc(C(C)(C)C)cc2)cc1	112	237			49	208	66.1	194	32.2	128	62.9	210	58.8	201	121	248	39.6	155	208	65.5
O=C1CCc2ccc(O)c(c2)Oc2ccc(cc2)[C@@H]2O[C@@H]2CO1		> 100		> 100		> 100		> 100				> 100		> 100		> 100		> 100		

Compound	GI50 (TK-10 renal) [µM]	TGI (TK-10 renal) [µM]	GI50 (CAKI-1 renal) [µM]	TGI (CAKI-1 renal) [µM]	GI50 (CCRF-CEM leukemia) [µM]	TGI (CCRF-CEM leukemia) [µM]	GI50 (U251 CNS) [µM]	TGI (U251 CNS) [µM]	GI50 (PC-3 prostate) [µM]	TGI (PC-3 prostate) [µM]	GI50 (OVCAR-8 ovarian) [µM]	TGI (OVCAR-8 ovarian) [µM]	GI50 (SK-MEL-28 melanoma) [µM]	TGI (SK-MEL-28 melanoma) [µM]	GI50 (SK-OV-3 ovarian) [µM]	TGI (SK-OV-3 ovarian) [µM]	GI50 (KM12 colon) [µM]	TGI (KM12 colon) [µM]	TGI (RXF 393 renal) [µM]	GI50 (RXF 393 renal) [µM]
COc1ccc(C(Nc2ccccn2)c2cc(C(C)(C)C)cc(C(C)(C)C)c2O)cc1 (stereo not drawn)		> 100		> 100				> 100		> 100		> 100		> 100		> 100		63.8	38.6	
N#CC1=C(c2ccccc2)OC2(N)OC(c3ccccc3)=C(C#N)C12C#N (stereo not drawn)		> 100		> 100		> 100		> 100				> 100		> 100		> 100		> 100	> 100	
CC[P+]1(c2ccccc2)CCCCC1		> 100		> 100		> 100		> 100				> 100		> 100		> 100		> 100	> 100	
Cc1ccc(NC(=O)CCC(=O)C2Cc3ccccc3C2=O)cc1C (stereo not drawn)		> 100		> 100		> 100		> 100				> 100		> 100		> 100		> 100	> 100	
CCOP(=O)(OCC)C(NC(c1ccccc1)c1ccccc1)c1ccc(C(C)C)cc1 (stereo not drawn)	3.32	14.4	3.23	13.1	3.39	25.5	3.63	13.9	2.9	13.3	5.04	19.5	11.9	52	13.2	34.7	4.8	17.2		
CN(C)CCNC(=O)c1cccc2c1nc(-c1ccncc1)c1ccccc12		7.77		24.5		> 100		17				41.9		17.6		24.7		25.6	7.55	
CSc1cc(C(C)(C)C)ccc1C(O)c1ccc(C(C)(C)C)cc1SC		30.6		24.9		35.8		27.1				28.8		39.3		32.2		25.8	24.9	
CC(=O)[CH-]C(=O)c1ccccc1.CC(=O)[CH-]C(=O)c1ccccc1.CC(=O)[CH-]C(=O)c1ccccc1.[Br-].[Zr+4]	> 100	> 100	37.2	> 100	22.3	> 100	67.7	> 100			> 100	> 100	55.3	> 100	74.8	> 100	> 100	> 100	> 100	> 100
O=C(Nc1ccc(Cl)cc1)N1CCN(c2ccc3nncn3n2)CC1	43	> 100	30.3	> 100			> 100	> 100	34.3	> 100	69.7	> 100	> 100	> 100	> 100	> 100	52.9	> 100	> 100	> 100
N#CCC(=O)Nc1ccccc1O		> 100		> 100		> 100		> 100				> 100		> 100		> 100		> 100	> 100	
COc1cc(NCCC2CCCCN2)c2ncccc2c1OC (stereo not drawn)	22.1	39.7	9.56	30.2			4.12	16	18.1	72	6.49	59.2	11.7	24.8	20.3	38.9	14.9	33.5	38.5	22.8
CC(=O)O[C@H]1CC[C@]2(C)C3C(=O)C[C@]4(C)[C@@H](C(C)CCC(=O)O)CC[C@@]4(C)[C@@H]3CC[C@H]2C1(C)C (stereo partly drawn)	21.8	> 50	20.8	46.1			7	20	18.3	> 50	15.7	> 50	28.6	> 50	21.4	> 50	13.9	38.4	> 50	15.5
N#CC(C#N)=C1CCC2C(=C(C#N)C#N)CCC12 (stereo not drawn)		> 100		> 100		> 100		> 100				> 100				> 100		> 100	> 100	
CCOC(=O)c1cc(C(=O)c2cc(OC)c(OC)c(OC)c2)n2ccc(-c3cc[n+](CC(=O)c4cc(OC)c(OC)c(OC)c4)cc3)cc12	1.79	3.5							2.61	8.12	2.33	5.47	1.75	3.6	19.6	47.1	1.81	3.42	3.48	1.66
COc1ccc(NC(=O)c2cccc(C3CCc4c(cc(OC)c(OC)c4OC)O3)c2)cc1 (stereo not drawn)	3.75	> 100	3.49	> 100	1.6	> 100	3.4	> 100	1.57	> 100	3.1	> 100	4.12	> 100	3.54	> 100	3.49	> 100		
O=C(COc1cccc(/C=C2\Oc3ccc4ccccc4c3C2=O)c1)c1ccc([N+](=O)[O-])cc1	37.3	> 100	45.9	> 100	3.96	17.4	14.7	27.8			14.2	37.2	48.4	> 100	64.2	> 100	11.9	26.2	25.2	10.6
FC(F)(F)c1nc(Br)[nH]c1C(F)(F)F		> 100		> 100		> 100		> 100				> 100		> 100		> 100		> 100	> 100	
